Format in all cases: in vivo, cattle
One test relates to plasma estradiol. The test is described as follows: Example I: plasma estradiol by ELISA after single iv dose. The settings on record: doses combined. The protocol: Heifers in which a CL was detected during the initial examination were given […] cloprostenol (PGF, Estrumate™, Schering-Plough Animal Health, Pointe-Claire, QC, Canada) intramuscularly (im) to induce regression of the CL and to synchronize ovulation. Heifers were examined daily by transrectal ultrasonography to detect ovulation. Transvaginal ultrasound-guided follicular aspiration of follicles ≧5 mm was performed five to eight days after ovulation to synchronize wave emergence. Heifers were examined daily by transrectal ultrasonography to detect follicular wave emergence, which was expected 1 to 1.5 days after follicular ablation. Four days after follicular ablation (approximately 2.5 days after follicular wave emergence), and at the time follicular dominance becomes apparent, heifers were assigned randomly to the following treatment groups and given a single intravenous dose of 1) 500 μg/kg of letrozole (high dose group, n=9), 2) 250 μg/kg of letrozole (medium dose group, n=10), 3) 125 μg/kg of letrozole (low dose group, n=10), or 4) 20 ml of phosphate buffered saline (PBS control group, n=10). For practical purposes, the dose of letrozole was calculated based on an average weight of 400 kg for all heifers. The average oral dose used in women (2.5-5 mg per day for 5 days) was used to estimate the medium dose for cattle. The high and low doses were set as double and half the medium dose, respectively. The day of treatment was defined as Day 0. For intravenous injection, letrozole was prepared in 95% ethanol at a final concentration of 5 mg per ml, resulting in an injection volume of 10-40 ml. The experiment was performed in four replicates (n=2-3 per group per replicate) and each heifer was used only once.
Statistical analyses were done using the Statistical Analysis System software package (SAS Learning Edition 9.1, 2006; SAS Institute Inc., Cary, N.C., USA). Time-series hormone data, plasma letrozole concentration, and follicular diameter profiles were analyzed by repeated measures, using the PROC MIXED procedure. The main effects were treatment (high, medium and low dose, and control), time, and their interactions.
(In general: An ELISA detects its analyte on a solid surface through an enzyme-linked reagent.)

The next test deals with plasma LH. The experiment in a line: Example II: plasma LH and LH pulsatility during 3-day letrozole regimen. The protocol: Four days after follicular ablation, heifers were given 500 μg of cloprostenol (PGF, Estrumate, Schering-Plough Animal Health, Pointe-Claire, QC, Canada) intramuscularly (im) to induce regression of the CL and to synchronize ovulation. The experiment was performed in two replicates (n=20-27 per replicate) and each heifer was used only once. In replicate 1, heifers were assigned randomly at the time of ovulation (Day 0) to the following groups and given a 3-day regimen of letrozole from Days 1 to 3 (n=5), Days 3 to 5 (n=5), Days 5 to 7 (n=5), or no treatment (control group, n=5). In replicate 2, heifers were similarly assigned to groups and given letrozole from Days 1 to 3, (n=5), Days 3 to 5 (n=4), or Days 5 to 7 (n=4), but untreated control heifers were arranged in three sub-groups to serve as contemporaneous controls for each letrozole-group during intensive blood sampling periods (i.e., control Days 1 to 3, n=4; control Days 3 to 5, n=4; and control Days 5 to 7, n=5). For practical purposes, the total dose of letrozole (250 μg/kg) was calculated on the basis of an average weight of 350 kg for all heifers and administered intravenously in daily divided doses over 3 days (85 μg/kg per day). For intravenous injection, letrozole was prepared in 95% ethanol to a final concentration of 5 mg/ml, resulting in an injection volume of 6 mL/day.
Blood samples were collected by jugular or coccygeal venipuncture into 10 ml heparinised, vacuum tubes (Vacutainer tubes; Becton Dickinson Vacutainer Systems, Franklin Lakes, N.J., USA). Blood samples were collected daily from pre-treatment ovulation to post-treatment ovulation. In replicate 1, additional samples were collected from letrozole-treated heifers every 12 hours from the beginning of treatment to first wave emergence. In replicate 2, heifers were sampled at 15 minute intervals for the first 8 hours after the second dose of letrozole (i.e., second day of treatment) using an indwelling jugular catheter, as described previously. Blood samples were centrifuged at 1500×g for 20 minutes, and plasma was separated and stored in plastic tubes at −20° C.
Plasma LH concentrations were determined in duplicate using a double-antibody radioimmunoassay (NIDDK-bLH4). The minimum and maximum values along the standard curve were 0.06 and 8 ng/mL, respectively. The intra- and inter-assay coefficients of variation were 7.9% and 2.5%, respectively, for low reference samples (mean, 0.85 ng/mL) and 8.6% and 9.5%, respectively, for high reference samples (mean, 2.5 ng/mL).
Statistical analyses were done using the Statistical Analysis System software package (SAS Learning Edition 9.1, 2006; SAS Institute Inc., Cary, N.C., USA). Time-series hormone data, plasma letrozole concentration, and follicular and luteal diameter profiles were analysed by repeated measures, using the PROC MIXED procedure. The main effects were treatment, time, and their interactions. […] Single point measurements (interwave and interovulatory intervals, interval from ovulation to onset of CL regression, mean and basal LH concentrations, LH pulse amplitude and frequency, and pharmacokinetic parameters for letrozole) were analysed by analysis of variance. […] If significant main effects or interactions (P≦0.05) were detected, Tukey's post-hoc test was used for multiple comparisons.
Due to individual variability in circulating hormone concentrations among heifers, and because our objective was to determine the effect of treatment within individuals, data on LH and FSH concentrations were transformed to a percentage of the mean concentration of the two first data points collected (Days 0 and 1) for each individual heifer before analysis of variance for repeated measures. For the same reasons, estradiol concentrations were transformed to a percentage of the mean concentration of two pre-treatment data points ([…] each individual heifer before statistical analysis. […]

A further test relates to heifers. The experiment in a line: Example IV: intravaginal device containing 1 g letrozole in heifers, ovulation and ovarian structures. As to the method: To test the hypothesis that letrozole treatment during the preovulatory stage, initiated prior to onset of follicular selection and prolonged for a 7-day period will be able to induce the development of more than one follicle to a preovulatory size and to delay the occurrence of ovulation. To develop a practical route of administration of letrozole in cattle.
Five to eight days after PGF-induced ovulation, FA was performed followed by a double dose of PGF 60 and 72 hr later. Heifers were randomly divided into two groups and received from Day 1 (Day 0=wave emergence) until Day 7 or until ovulation is detected: • intravaginal device containing 1 g of letrozole (n=15) • Intravaginal blank device (letrozole free, n=15)
Transrectal ultrasound examination and blood sample collection were performed daily from day of ablation until Day 12 post-ovulation. blood samples were collected frequently at the time of catheter placement, at 0, 10, 20, 30 min, 1, 1.5, 2, 3, 4, 6, 8, 12 and 24 hours post-treatment

[1] abbreviates: treatment period Day 1-3, 15 min samples over 8 hours.
[2] abbreviates: treatment period Day 3-5, 15 min samples over 8 hours.
[3] abbreviates: treatment period Day 5-7, 15 min samples over 8 hours.

`N#Cc1ccc(C(c2ccc(C#N)cc2)n2cncn2)cc1` [Letrozole, letrozole]: the plasma estradiol concentration worked out at 15.2 ± 3.01 pg/mL in the test with plasma estradiol (0 hours (at treatment), mean±SEM) and 8.0 ± 1.51 pg/mL in the test with plasma estradiol (24 hours after single iv dose, P=0.03 vs 0 hours). Also, in the test on plasma estradiol (single iv dose), the “decrease of plasma estradiol from 0 to 24 hours after treatment” value is on record as approximately 50%. Also, the “mean plasma estradiol over the 4-day period after treatment compared to controls” value with plasma estradiol (single iv dose, P=0.06) is “tended to be higher”. Further, the “plasma LH concentrations among groups, daily samples” value in the test with plasma LH (3-day regimen) is recorded as “No significant differences”. Besides, the “plasma LH, percent of the mean of Days 0 and 1” value in the test on plasma LH (AM samples collected during treatment) turned out to be 93.6±14.85%. For the same molecule, the “Basal LH” value with plasma LH (setting [1]) was determined as 0.38 ± 0.11 ng/mL; in the test with plasma LH (setting [2]) it was 0.08 ± 0.03 ng/mL; in the test on plasma LH (setting [3]) it was 0.13 ± 0.02 ng/mL. Besides, the LH pulse amplitude in the test on plasma LH (setting [1]) came out at 0.46 ± 0.15 ng/mL; in the test with plasma LH (setting [2]), 0.40 ± 0.18 ng/mL; in the test on plasma LH (setting [3]) it was 0.88 ± 0.37 ng/mL. Moreover, the figures for the LH pulse frequency in the test with plasma LH (setting [1]), in the test with plasma LH (setting [2]) and in the test on plasma LH (setting [3]) were 0.95 pulses/h, 0.53 pulses/h and 0.41 pulses/h, respectively. Moreover, the “Mean LH” value came out at 0.52 ± 0.15 ng/mL in the test with plasma LH (treatment period Day 1-3, 15 min samples over 8 hours after second dose); 0.15 ± 0.5 ng/mL in the test with plasma LH (setting [2]); 0.21 ± 0.04 ng/mL with plasma LH (setting [3]). For the same molecule, in the test with heifers, the “size of the ovulated dominant follicle (DF)” value is “larger DF”. In addition, in the test on heifers (Day 1 to Day 7 of pre-ovulatory wave), the delay of ovulation stood at 24 h.

For the origin of these results see patent US9144569B2, “Methods of administering an aromatase inhibitor, prostaglandin and GnRH for regulating ovulation in cattle” (UNIVERSITY OF SASKATCHEWAN, priority 2010, dated 2015).
